Experimental data published in patent publication US20230295110A1, “PHD INHIBITOR COMPOUNDS, COMPOSITIONS, AND METHODS OF USE” (Akebia Therapeutics, Inc., priority 2020, published 2023).
Read-outs that look alike come from different tables or passages of the source.

Legend:
full-length human PHD2 = full-length human PHD2 (Homo sapiens (Human), UniProt Q9GZT9); test: TR-FRET assay for PHD enzymes, PHD2
Source text: Time-resolved fluorescence resonance energy transfer (TR-FRET) assay was utilized to determine the enzymatic half maximal inhibitory concentration (IC50) value of PHD inhibitors against the full-length human prolyl-4-hydroxylase domain (PHD) enzymes, PHD1, PHD2, and PHD3. The TR-FRET assay was developed based on the specific binding of hydroxylated HIF-1α peptide with the complex formed by VHL, EloB and EloC (VBC), to generate a fluorescent signal. Terbium (Tb)-Donor (monoclonal antibody anti-6His-Tb-cryptate Gold) and D2-acceptor (streptavidin [SA]-D2) of TR-FRET are linked to the VBC complex and to HIF-1α peptide, respectively. The VBC complex binds specifically to the HIF-1α peptide when it is hydroxylated, allowing energy transfer from TR-FRET donor to acceptor (FIG. 1). […] The plates were incubated for 30 minutes at room temperature without rotation. […] TR-FRET assays were performed in triplicate at each concentration of compound and the assays were repeated independently three times.

full-length human PHD1 = full-length human PHD1 (Homo sapiens (Human), UniProt Q96KS0); test: TR-FRET assay for PHD enzymes, PHD1; format: biochemical; details: for IC50: TR-FRET, 15 nM PHD1, 1 μM 2-OG
full-length human PHD1, sequence (Q96KS0 whole entry): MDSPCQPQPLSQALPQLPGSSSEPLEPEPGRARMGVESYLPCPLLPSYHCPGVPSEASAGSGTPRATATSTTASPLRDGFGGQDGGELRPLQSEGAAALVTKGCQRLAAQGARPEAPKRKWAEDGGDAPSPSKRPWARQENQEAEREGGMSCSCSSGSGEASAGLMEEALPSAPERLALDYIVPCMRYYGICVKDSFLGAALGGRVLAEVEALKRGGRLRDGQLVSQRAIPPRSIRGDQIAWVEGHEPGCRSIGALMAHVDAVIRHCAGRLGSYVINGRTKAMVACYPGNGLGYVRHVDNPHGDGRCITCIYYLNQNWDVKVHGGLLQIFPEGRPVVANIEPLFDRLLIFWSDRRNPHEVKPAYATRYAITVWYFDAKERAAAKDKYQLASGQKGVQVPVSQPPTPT
Source text: PHD1 was expressed in a baculovirus expression system as the full-length protein (NCBI accession number NP_542770.2) with an N-terminal FLAG tag (molecular weight 44.9 kDa).

full-length human PHD3 = full-length human PHD3 (Homo sapiens (Human), UniProt Q9H6Z9); test: TR-FRET assay for PHD enzymes, PHD3; format: biochemical; details: TR-FRET, 35 nM PHD3, 1 μM 2-OG
full-length human PHD3, sequence (Q9H6Z9 whole entry): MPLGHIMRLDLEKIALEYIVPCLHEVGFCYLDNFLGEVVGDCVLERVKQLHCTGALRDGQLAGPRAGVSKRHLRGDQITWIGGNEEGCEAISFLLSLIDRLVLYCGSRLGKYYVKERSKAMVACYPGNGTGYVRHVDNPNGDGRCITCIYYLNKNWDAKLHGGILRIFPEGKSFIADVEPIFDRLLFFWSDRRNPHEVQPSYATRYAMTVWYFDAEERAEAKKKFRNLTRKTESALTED
Source text: Recombinant human PHD3 protein (molecular weight 31.1 kDa) was purchased from Active Motif (Carlsbad, CA, USA). It was expressed in E. coli as the full-length protein (NCBI accession number NP_071356.1) with an N-terminal 6-His tag (catalog #81033, Lot #24417001).

[1] = read-out: PHD2 IC50, TR-FRET, 5 nM PHD2, 1 μM 2-OG

full-length human PHD2, sequence (Q9GZT9 whole entry): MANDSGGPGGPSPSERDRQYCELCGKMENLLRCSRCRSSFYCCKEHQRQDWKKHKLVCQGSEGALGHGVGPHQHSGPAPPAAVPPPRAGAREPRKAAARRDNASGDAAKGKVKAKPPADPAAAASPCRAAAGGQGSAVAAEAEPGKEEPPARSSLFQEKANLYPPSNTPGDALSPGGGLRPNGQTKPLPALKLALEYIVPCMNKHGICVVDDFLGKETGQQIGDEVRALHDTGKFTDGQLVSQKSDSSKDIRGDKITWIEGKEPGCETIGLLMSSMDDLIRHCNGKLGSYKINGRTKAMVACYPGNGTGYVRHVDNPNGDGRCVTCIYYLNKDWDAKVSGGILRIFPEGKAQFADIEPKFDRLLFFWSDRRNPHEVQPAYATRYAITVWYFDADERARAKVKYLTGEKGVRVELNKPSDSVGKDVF

| Structure (SMILES) | IC50 (full-length human PHD2; [1]) [nM] | IC50 (full-length human PHD1) [nM] | IC50 (full-length human PHD3) [nM] | Km (full-length human PHD1; read-out: Km of 2-OG for PHD1) [µM] | IC50 (full-length human PHD2) [nM] |
| --- | --- | --- | --- | --- | --- |
| Cc1c(-c2cccc(F)c2)cnc(C(=O)NCC(=O)O)c1O [Compound 1, (5-(3-Fluorophenyl)-3-hydroxy-4-methylpicolinoyl)glycine] | < 100 | < 100 | – | – | – |
| COc1cccc(-c2cnc(C(=O)NCC(=O)O)c(O)c2C)c1 [Compound 2, (3-Hydroxy-5-(3-methoxyphenyl)-4-methylpicolinoyl)glycine] | < 100 | < 100 | < 100 | – | – |
| O=C(O)CCC(=O)C(=O)O [Compound 2-OG, 2-oxoglutarate, reference compound] | – | – | – | 0.0127 | – |
| Cc1c(-c2ccc3cnccc3c2)cnc(C(=O)NCC(=O)O)c1O [Compound 3, (3-Hydroxy-5-(isoquinolin-6-yl)-4-methylpicolinoyl)glycine] | < 100 | < 100 | < 100 | – | – |
| Cc1c(-c2cnn(-c3ccccc3)c2)cnc(C(=O)NCC(=O)O)c1O [Compound 4, (3-Hydroxy-4-methyl-5-(1-phenyl-1H-pyrazol-4-yl)picolinoyl)glycine] | < 100 | < 100 | – | – | – |
| Cc1ccc2cc(-c3cnc(C(=O)NCC(=O)O)c(O)c3C)ccc2n1 [Compound 5, (3-Hydroxy-4-methyl-5-(2-methylquinolin-6-yl)picolinoyl)glycine] | < 100 | < 100 | < 100 | – | – |
| Cc1c(-c2cnn(C3CCN(C(=O)OC(C)(C)C)CC3)c2)cnc(C(=O)NCC(=O)O)c1O [Compound 6, (5-(1-(1-(Tert-butoxycarbonyl)piperidin-4-yl)-1H-pyrazol-4-yl)-3-hydroxy-4-methylpicolinoyl)glycine] | < 100 | < 100 | – | – | – |
| Cc1c(-c2cnc(-c3ccccc3)s2)cnc(C(=O)NCC(=O)O)c1O [Compound 7, (3-Hydroxy-4-methyl-5-(2-phenylthiazol-5-yl)picolinoyl)glycine] | < 100 | < 100 | < 100 | – | – |
| Cc1c(-c2cccc(Oc3ccccc3)c2)cnc(C(=O)NCC(=O)O)c1O [Compound 8, (3-Hydroxy-4-methyl-5-(3-phenoxyphenyl)picolinoyl)glycine] | < 100 | < 100 | – | – | – |
| Cc1c(-c2ccc(C(F)(F)F)nc2)cnc(C(=O)NCC(=O)O)c1O [Compound 9, (5-Hydroxy-4-methyl-6′-(trifluoromethyl)-[3,3′-bipyridine]-6-carbonyl)glycine] | < 100 | < 100 | < 100 | – | – |
| Cc1c(-c2cccnc2)cnc(C(=O)NCC(=O)O)c1O [Compound 10, (5-Hydroxy-4-methyl-[3,3′-bipyridine]-6-carbonyl)glycine] | < 100 | < 100 | < 100 | – | – |
| Cc1c(-c2ccncc2)cnc(C(=O)NCC(=O)O)c1O [Compound 11, (5-Hydroxy-4-methyl-[3,4′-bipyridine]-6-carbonyl)glycine] | < 100 | < 100 | – | – | – |
| Cc1c(-c2ccccn2)cnc(C(=O)NCC(=O)O)c1O [Compound 12, (5′-Hydroxy-4′-methyl-[2,3′-bipyridine]-6′-carbonyl)glycine] | < 100 | < 100 | – | – | – |
| Cc1c(-c2cccc(Cl)c2)cnc(C(=O)NC(C)(C)C(=O)O)c1O [Compound 13, 2-(5-(3-Chlorophenyl)-3-hydroxy-4-methylpicolinamido)-2-methylpropanoic Acid] | – | > 10000 | – | – | > 10000 |
| Cc1c(-c2cccc(Cl)c2)cnc(C(=O)NC2(C(=O)O)CC2)c1O [Compound 14, 1-(5-(3-Chlorophenyl)-3-hydroxy-4-methylpicolinamido)cyclopropane-1-carboxylic acid] | – | 1000 to 10000 | – | – | 1000 to 10000 |
| Cc1c(-c2cccc(Cl)c2)cnc(C(=O)NC2(C(=O)O)CCC2)c1O [Compound 15, 1-(5-(3-Chlorophenyl)-3-hydroxy-4-methylpicolinamido)cyclobutane-1-carboxylic acid] | – | > 10000 | – | – | > 10000 |
| Cc1c(-c2cccc(Cl)c2)cnc(C(=O)NC2(C(=O)O)COC2)c1O [Compound 16, 3-(5-(3-Chlorophenyl)-3-hydroxy-4-methylpicolinamido)oxetane-3-carboxylic Acid] | – | 1000 to 10000 | – | – | > 10000 |
| Cc1c(-c2ccc3c(c2)CCC(C)N3)cnc(C(=O)NCC(=O)O)c1O (stereo not drawn) [Compound 17, (3-Hydroxy-4-methyl-5-(2-methyl-1,2,3,4-tetrahydroquinolin-6-yl)picolinoyl)glycine] | < 100 | < 100 | – | – | – |
| Cc1cc(CCOCc2ccccc2)c(O)c(C(=O)NCC(=O)O)n1 [Compound 23, (4-(2-(Benzyloxy)ethyl)-3-hydroxy-6-methylpicolinoyl)glycine] | – | 100 to 1000 | – | – | 100 to 1000 |
| Cc1cc(Cc2ccc(F)cc2)c(O)c(C(=O)NCC(=O)O)n1 [Compound 24, (4-(4-Fluorobenzyl)-3-hydroxy-6-methylpicolinoyl)glycine] | – | 100 to 1000 | – | – | 100 to 1000 |
| Cc1ncccc1-c1cnc(C(=O)NCC(=O)O)c(O)c1C [Compound 29] | – | 100 to 1000 | – | – | 100 to 1000 |
| Cc1c(-c2ccc3ncccc3c2)cnc(C(=O)NCC(=O)O)c1O [Compound 34, (3-hydroxy-4-methyl-5-(quinolin-6-yl)picolinoyl)glycine] | < 100 | < 100 | – | – | – |
| Cc1c(Oc2ccccc2)cnc(C(=O)NCC(=O)O)c1O [Compound 35, (3-hydroxy-4-methyl-5-phenoxypicolinoyl)glycine] | 100 to 1000 | 100 to 1000 | – | – | – |
| Cc1c(C(=O)c2ccccc2)cnc(C(=O)NCC(=O)O)c1O [Compound 40, (5-benzoyl-3-hydroxy-4-methylpicolinoyl)glycine] | – | 100 to 1000 | – | – | 100 to 1000 |

| Structure (SMILES) | IC50 (full-length human PHD2; [1]) [nM] | IC50 (full-length human PHD1) [nM] | IC50 (full-length human PHD3) [nM] | Km (full-length human PHD1; read-out: Km of 2-OG for PHD1) [µM] | IC50 (full-length human PHD2) [nM] |
| --- | --- | --- | --- | --- | --- |
| Cc1c(-c2nnn(-c3cc(Cl)cc(Cl)c3)n2)cnc(C(=O)NCC(=O)O)c1O [Compound 45, (5-(2-(3,5-dichlorophenyl)-2H-tetrazol-5-yl)-3-hydroxy-4-methylpicolinoyl)glycine] | < 100 | < 100 | – | – | – |
| CCc1c(-c2cccc(Cl)c2)cnc(C(=O)NCC(=O)O)c1O [Compound 46, (5-(3-chlorophenyl)-4-ethyl-3-hydroxypicolinoyl)glycine] | < 100 | < 100 | – | – | – |
| Cc1c(-c2cnn(-c3ccccc3)c2F)cnc(C(=O)NCC(=O)O)c1O [Compound 49, (5-(5-fluoro-1-phenyl-1H-pyrazol-4-yl)-3-hydroxy-4-methylpicolinoyl)glycine] | < 100 | < 100 | – | – | – |
| Cc1c(-c2cnn(-c3ccccc3)c2C)cnc(C(=O)NCC(=O)O)c1O [Compound 50, (3-hydroxy-4-methyl-5-(5-methyl-1-phenyl-1H-pyrazol-4-yl)picolinoyl)glycine] | – | 100 to 1000 | – | – | 100 to 1000 |
| Cc1c(-c2ccn(-c3ccccc3)c2)cnc(C(=O)NCC(=O)O)c1O [Compound 51] | – | < 100 | – | – | 100 to 1000 |
| Cc1c(-c2nnn(C3CC3)n2)cnc(C(=O)NCC(=O)O)c1O [Compound 52] | < 100 | < 100 | – | – | – |
| Cc1c(C#CCOc2ccccc2)cnc(C(=O)NCC(=O)O)c1O [Compound 53] | < 100 | < 100 | – | – | – |
| Cc1c(S(=O)(=O)c2ccccc2)cnc(C(=O)NCC(=O)O)c1O [Compound 54] | – | 100 to 1000 | – | – | 100 to 1000 |
| Cc1c(N2CCN(c3ccccc3)CC2)cnc(C(=O)NCC(=O)O)c1O [Compound 55] | – | < 100 | – | – | 100 to 1000 |
| Cc1c(N2CCC(c3ccccc3)CC2)cnc(C(=O)NCC(=O)O)c1O [Compound 56] | < 100 | < 100 | – | – | – |
| Cc1c(Oc2ccccc2)cnc(C(=O)NCC(=O)O)c1O [Compound 57, 2-(3-hydroxy-4-methyl-5-phenoxypicolinamido)acetic acid] | – | 1000 to 10000 | – | – | 100 to 1000 |
| Cc1c(Cc2ccccc2)cnc(C(=O)NCC(=O)O)c1O [Compound 58] | – | 1000 to 10000 | – | – | 100 to 1000 |
| Cc1c(Sc2ccccc2)cnc(C(=O)NCC(=O)O)c1O [Compound 59] | – | 1000 to 10000 | – | – | 100 to 1000 |
| Cc1c(-c2cnn(-c3ccc(Cl)cc3Cl)c2)cnc(C(=O)NCC(=O)O)c1O [Compound 60] | < 100 | < 100 | – | – | – |
| Cc1c(CCc2ccccc2)cnc(C(=O)NCC(=O)O)c1O [Compound 61] | – | 100 to 1000 | – | – | 100 to 1000 |
| Cc1c(C#Cc2ccccc2)cnc(C(=O)NCC(=O)O)c1O [Compound 62] | < 100 | < 100 | – | – | – |
| Cc1c(-c2nnn(-c3ccc(Cl)cc3)n2)cnc(C(=O)NCC(=O)O)c1O [Compound 63] | < 100 | < 100 | – | – | – |
| Cc1c(-c2nn[nH]n2)cnc(C(=O)NCC(=O)O)c1O [Compound 64] | – | 100 to 1000 | – | – | 100 to 1000 |
| Cc1c(-c2nnn(-c3ccccc3)n2)cnc(C(=O)NCC(=O)O)c1O [Compound 65] | < 100 | < 100 | – | – | – |
| Cc1c(-c2cnn(-c3cc(Cl)cc(Cl)c3)c2)cnc(C(=O)NCC(=O)O)c1O [Compound 66] | < 100 | < 100 | – | – | – |
| Cc1c(-c2cnn(-c3ccc(C(F)(F)F)cc3)c2)cnc(C(=O)NCC(=O)O)c1O [Compound 67] | < 100 | < 100 | – | – | – |
| O=C(O)CNC(=O)c1ncc(-c2cccc(Cl)c2)c(C2CC2)c1O [Compound 69, (5-(3-Chlorophenyl)-4-cyclopropyl-3-hydroxypicolinoyl)glycine] | – | 100 to 1000 | – | – | 100 to 1000 |
| O=C(O)CNC(=O)c1ncc(-c2cccc(Cl)c2)c(C(F)F)c1O [Compound 70, (5-(3-Chlorophenyl)-4-(difluoromethyl)-3-hydroxypicolinoyl)glycine] | – | 100 to 1000 | – | – | 100 to 1000 |
